Laboratory results as given in patent publication EP2649989B1, “Method for preparing a solid dispersion, solid dispersion obtained thereby and use thereof” (King Saud University, priority 2012, dated 2013).
Converted amounts (≈) assume the structure as drawn.

Test: Solubility in water according to the Higuchi-Connor method
Assay type: physicochemical
Details: thermodynamic from solid; excess amount added to 10 ml of water, shaken on mechanical shaker for 48 hours, filtered, dissolved drug content; read-out: Indomethacin Solubility in water
Experimental: The solubility of the drug (indomethacin) and solid dispersions of the drug according to the invention was examined in water according to the Higuchi-Connor method, see "Advances in Analytical Chemical Chemistry and Instrumentation" Vol. 4, New York, Wiley-Interscience 1965, page 117-212. An excess amount of drug, comparative solid dispersions and inventive solid dispersions was added to 10 ml of water, separately. The dispersions were shaken on mechanical shaker for 48 hours. Afterwards, the samples were withdrawn, filtered, diluted and analyzed to calculate the dissolved drug content.

SMILES: COc1ccc2c(c1)c(CC(=O)O)c(C)n2C(=O)c1ccc(Cl)cc1 [Indomethacin]
- solubility at 48 h: 0.152 mg/mL (≈ 425 µM)
